“And” between values parts separate entries of the source, which are not always exact repeats. Equal entries are not always repeated. HELM strings list units from the 5' end as sugar, base in round brackets, then linkage (d deoxyribose, r ribose, m 2'-O-methyl, p phosphodiester). Methylation of C is not given here. [moe] = 2'-O-(2-methoxyethyl) (MOE); [cEt] = constrained ethyl (cEt); [sp] = phosphorothioate linkage
Target: HBV
Settings: ASO

| Substance | target mRNA inhibition (HepG2, 0.07 µM) | also measured |
| --- | --- | --- |
| RNA1{[moe](T)[sp].[cEt](A)[sp].[cEt](G)[sp].d(G)[sp].d(C)[sp].d(A)[sp].d(G)[sp].d(A)[sp].d(G)[sp].d(G)[sp].d(T)[sp].d(G)[sp].d(A)[sp].[cEt](A)[sp].[cEt](A)[sp].[moe](A)}$$$$V2.0 | 31% and 28% |  |
| RNA1{[moe](T)[sp].[moe](T)[sp].d(T)[sp].d(A)[sp].d(T)[sp].d(G)[sp].d(C)[sp].d(C)[sp].d(T)[sp].d(A)[sp].d(C)[sp].[moe](A)[sp].[moe](G)[sp].[moe](C)[sp].[moe](C)[sp].[moe](T)[sp].[moe](C)}$$$$V2.0 | 64% and 54% |  |
| RNA1{[moe](T)[sp].[moe](G)[sp].[moe](G)[sp].[moe](A)[sp].[moe](G)[sp].d(C)[sp].d(C)[sp].d(A)[sp].d(C)[sp].d(C)[sp].d(A)[sp].d(G)[sp].d(C)[sp].d(A)[sp].[moe](G)[sp].[moe](G)}$$$$V2.0 | 33% and 32% |  |
| RNA1{[moe](A)[sp].[cEt](T)[sp].d(T)[sp].d(T)[sp].d(A)[sp].d(T)[sp].d(G)[sp].d(C)[sp].d(C)[sp].d(T)[sp].d(A)[sp].d(C)[sp].[cEt](A)[sp].[moe](G)[sp].[cEt](C)[sp].[moe](C)}$$$$V2.0 | 44% and 52% |  |
| RNA1{[moe](G)[sp].[moe](A)[sp].[moe](A)[sp].[moe](G)[sp].[moe](T)[sp].[moe](C)[sp].d(C)[sp].d(A)[sp].d(C)[sp].d(C)[sp].d(A)[sp].d(C)[sp].d(G)[sp].d(A)[sp].d(G)[sp].[moe](T)[sp].[moe](C)}$$$$V2.0 | 42% |  |
| RNA1{[moe](G)[sp].[moe](A)[sp].[moe](G)[sp].[moe](G)[sp].d(C)[sp].d(A)[sp].d(T)[sp].d(A)[sp].d(G)[sp].d(C)[sp].d(A)[sp].d(G)[sp].d(C)[sp].[moe](A)[sp].[moe](G)[sp].[moe](G)[sp].[moe](A)}$$$$V2.0 | 35% |  |
| RNA1{[moe](C)[sp].[moe](C)[sp].[moe](A)[sp].[moe](A)[sp].[moe](T)[sp].[moe](T)[sp].d(T)[sp].d(A)[sp].d(T)[sp].d(G)[sp].d(C)[sp].d(C)[sp].d(T)[sp].d(A)[sp].d(C)[sp].[moe](A)[sp].[moe](G)}$$$$V2.0 | 13% and 20% |  |
| RNA1{[moe](C)[sp].[moe](T)[sp].d(G)[sp].d(G)[sp].d(A)[sp].d(G)[sp].d(C)[sp].d(C)[sp].d(A)[sp].d(C)[sp].d(C)[sp].[moe](A)[sp].[moe](G)[sp].[moe](C)[sp].[moe](A)[sp].[moe](G)}$$$$V2.0 | 57% and 53% |  |
| RNA1{d(C)[sp].d(C)[sp].d(A)[sp].d(A)[sp].d(A)[sp].d(G)[sp].d(C)[sp].d(C)[sp].d(A)[sp].d(C)[sp].d(C)[sp].d(C)[sp].d(A)[sp].d(A)[sp].d(G)[sp].d(G)}$$$$V2.0 |  | target mRNA inhibition (HepG2, 0.01875 µM): 4% and 0%; target mRNA inhibition (HepG2, 0.0375 µM): 0%; target mRNA inhibition (HepG2, 0.075 µM): 0%; target mRNA inhibition (HepG2, 0.15 µM): 3% and 0%; target mRNA inhibition (HepG2, 0.3 µM): 13% |
| RNA1{[moe](A)[sp].[cEt](A)[sp].[cEt](G)[sp].d(C)[sp].d(G)[sp].d(A)[sp].d(A)[sp].d(G)[sp].d(T)[sp].d(G)[sp].d(C)[sp].d(A)[sp].d(C)[sp].[cEt](A)[sp].[cEt](C)[sp].[moe](G)}$$$$V2.0 | 80% and 85% | target mRNA inhibition (HepG2, 0.0092593 µM): 28%; target mRNA inhibition (HepG2, 0.0277778 µM): 57%; target mRNA inhibition (HepG2, 0.0833333 µM): 80%; target mRNA inhibition (HepG2, 0.25 µM): 89% |
| RNA1{[moe](A)[sp].[moe](G)[sp].[moe](A)[sp].[moe](G)[sp].d(G)[sp].d(T)[sp].d(G)[sp].d(A)[sp].d(A)[sp].d(G)[sp].d(C)[sp].d(G)[sp].d(A)[sp].[moe](A)[sp].[moe](G)[sp].[moe](T)[sp].[moe](G)}$$$$V2.0 | 50% and 47% |  |
| RNA1{[moe](A)[sp].[cEt](A)[sp].d(G)[sp].d(C)[sp].d(G)[sp].d(A)[sp].d(A)[sp].d(G)[sp].d(T)[sp].d(G)[sp].d(C)[sp].d(A)[sp].[cEt](C)[sp].[moe](A)[sp].[cEt](C)[sp].[moe](G)}$$$$V2.0 | 82% and 75% | target mRNA inhibition (HepG2, 0.0092593 µM): 20%; target mRNA inhibition (HepG2, 0.0277778 µM): 40%; target mRNA inhibition (HepG2, 0.0833333 µM): 75%; target mRNA inhibition (HepG2, 0.25 µM): 89% |
| RNA1{[moe](A)[sp].[moe](A)[sp].d(T)[sp].d(T)[sp].d(T)[sp].d(A)[sp].d(T)[sp].d(G)[sp].d(C)[sp].d(C)[sp].d(T)[sp].[moe](A)[sp].[moe](C)[sp].[moe](A)[sp].[moe](G)[sp].[moe](C)}$$$$V2.0 | 27% and 19% |  |
| RNA1{[moe](T)[sp].[moe](G)[sp].[moe](A)[sp].[cEt](G)[sp].[cEt](G)[sp].d(C)[sp].d(A)[sp].d(T)[sp].d(A)[sp].d(G)[sp].d(C)[sp].d(A)[sp].[cEt](G)[sp].[cEt](C)[sp].[moe](A)[sp].[moe](G)[sp].[moe](G)}$$$$V2.0 |  | target mRNA inhibition (HepG2, 0.009375 µM): 23%; target mRNA inhibition (HepG2, 0.01875 µM): 4%; target mRNA inhibition (HepG2, 0.0375 µM): 29%; target mRNA inhibition (HepG2, 0.075 µM): 31%; target mRNA inhibition (HepG2, 0.15 µM): 36%; target mRNA inhibition (HepG2, 0.3 µM): 56% |
| RNA1{[moe](A)[sp].[cEt](C)[sp].d(G)[sp].d(T)[sp].d(G)[sp].d(C)[sp].d(A)[sp].d(G)[sp].d(A)[sp].d(G)[sp].d(G)[sp].d(T)[sp].[cEt](G)[sp].[moe](A)[sp].[cEt](A)[sp].[moe](G)}$$$$V2.0 | 71% and 68% |  |
| RNA1{[moe](A)[sp].[cEt](G)[sp].d(A)[sp].d(G)[sp].d(G)[sp].d(T)[sp].d(G)[sp].d(A)[sp].d(A)[sp].d(G)[sp].d(C)[sp].d(G)[sp].[cEt](A)[sp].[moe](A)[sp].[cEt](G)[sp].[moe](T)}$$$$V2.0 | 63% and 76% |  |
| RNA1{[moe](G)[sp].[cEt](A)[sp].[cEt](T)[sp].d(G)[sp].d(A)[sp].d(G)[sp].d(G)[sp].d(C)[sp].d(A)[sp].d(T)[sp].d(A)[sp].d(G)[sp].d(C)[sp].[cEt](A)[sp].[cEt](G)[sp].[moe](C)}$$$$V2.0 | 60% and 59% |  |
| RNA1{[moe](A)[sp].[moe](T)[sp].[moe](T)[sp].[moe](T)[sp].[moe](A)[sp].d(T)[sp].d(G)[sp].d(C)[sp].d(C)[sp].d(T)[sp].d(A)[sp].d(C)[sp].d(A)[sp].d(G)[sp].[moe](C)[sp].[moe](C)[sp].[moe](T)}$$$$V2.0 | 70% and 48% |  |
| RNA1{[moe](A)[sp].[moe](C)[sp].d(G)[sp].d(T)[sp].d(G)[sp].d(C)[sp].d(A)[sp].d(G)[sp].d(A)[sp].d(G)[sp].d(G)[sp].[moe](T)[sp].[moe](G)[sp].[moe](A)[sp].[moe](A)[sp].[moe](G)}$$$$V2.0 | 57% and 44% |  |
| RNA1{[moe](C)[sp].[moe](C)[sp].[moe](A)[sp].[moe](A)[sp].d(T)[sp].d(T)[sp].d(T)[sp].d(A)[sp].d(T)[sp].d(G)[sp].d(C)[sp].d(C)[sp].d(T)[sp].[moe](A)[sp].[moe](C)[sp].[moe](A)}$$$$V2.0 | 24% and 8% |  |
| RNA1{[moe](C)[sp].[moe](C)[sp].[moe](A)[sp].d(C)[sp].d(T)[sp].d(G)[sp].d(A)[sp].d(A)[sp].d(C)[sp].d(A)[sp].d(A)[sp].d(A)[sp].[moe](T)[sp].[moe](G)[sp].[moe](G)[sp].[moe](C)}$$$$V2.0 | 69% |  |
| RNA1{[moe](A)[sp].[cEt](G)[sp].d(A)[sp].d(T)[sp].d(G)[sp].d(A)[sp].d(G)[sp].d(G)[sp].d(C)[sp].d(A)[sp].d(T)[sp].d(A)[sp].[cEt](G)[sp].[moe](C)[sp].[cEt](A)[sp].[moe](G)}$$$$V2.0 | 72% and 60% |  |
| RNA1{[moe](A)[sp].[moe](G)[sp].[moe](A)[sp].[moe](G)[sp].[moe](G)[sp].d(T)[sp].d(G)[sp].d(A)[sp].d(A)[sp].d(G)[sp].d(C)[sp].d(G)[sp].d(A)[sp].d(A)[sp].[moe](G)[sp].[moe](T)[sp].[moe](G)}$$$$V2.0 | 64% and 55% |  |
| RNA1{[moe](G)[sp].[moe](A)[sp].[moe](G)[sp].d(G)[sp].d(C)[sp].d(A)[sp].d(T)[sp].d(A)[sp].d(G)[sp].d(C)[sp].d(A)[sp].d(G)[sp].d(C)[sp].[moe](A)[sp].[moe](G)[sp].[moe](G)}$$$$V2.0 |  | target mRNA inhibition (HepG2, 0.0092593 µM): 4%; target mRNA inhibition (HepG2, 0.0277778 µM): 24%; target mRNA inhibition (HepG2, 0.0833333 µM): 49%; target mRNA inhibition (HepG2, 0.25 µM): 67% |
| RNA1{[moe](C)[sp].[moe](T)[sp].[moe](G)[sp].[moe](G)[sp].[moe](A)[sp].d(G)[sp].d(C)[sp].d(C)[sp].d(A)[sp].d(C)[sp].d(C)[sp].d(A)[sp].d(G)[sp].d(C)[sp].[moe](A)[sp].[moe](G)}$$$$V2.0 | 46% and 53% |  |
| RNA1{[moe](A)[sp].[moe](C)[sp].[moe](T)[sp].[moe](G)[sp].d(G)[sp].d(A)[sp].d(G)[sp].d(C)[sp].d(C)[sp].d(A)[sp].d(C)[sp].d(C)[sp].d(A)[sp].[moe](G)[sp].[moe](C)[sp].[moe](A)[sp].[moe](G)}$$$$V2.0 | 40% and 41% |  |
| RNA1{[moe](C)[sp].[moe](T)[sp].[moe](G)[sp].[moe](G)[sp].d(A)[sp].d(G)[sp].d(C)[sp].d(C)[sp].d(A)[sp].d(C)[sp].d(C)[sp].d(A)[sp].d(G)[sp].[moe](C)[sp].[moe](A)[sp].[moe](G)[sp].[moe](G)}$$$$V2.0 | 79% and 76% | target mRNA inhibition (HepG2, 0.0092593 µM): 0%; target mRNA inhibition (HepG2, 0.0277778 µM): 24%; target mRNA inhibition (HepG2, 0.0833333 µM): 65%; target mRNA inhibition (HepG2, 0.25 µM): 79% |
| RNA1{[moe](A)[sp].[moe](T)[sp].[moe](G)[sp].d(A)[sp].d(G)[sp].d(G)[sp].d(C)[sp].d(A)[sp].d(T)[sp].d(A)[sp].d(G)[sp].d(C)[sp].[moe](A)[sp].[moe](G)[sp].[moe](C)[sp].[moe](A)[sp].[moe](G)}$$$$V2.0 | 66% and 51% |  |
| RNA1{[moe](A)[sp].[cEt](G)[sp].d(T)[sp].d(C)[sp].d(C)[sp].d(A)[sp].d(C)[sp].d(C)[sp].d(A)[sp].d(C)[sp].d(G)[sp].d(A)[sp].[cEt](G)[sp].[moe](T)[sp].[cEt](C)[sp].[moe](T)}$$$$V2.0 | 51% and 43% |  |
| RNA1{[moe](C)[sp].[moe](G)[sp].[moe](C)[sp].[moe](A)[sp].d(G)[sp].d(T)[sp].d(A)[sp].d(T)[sp].d(G)[sp].d(G)[sp].d(A)[sp].d(T)[sp].d(C)[sp].[moe](G)[sp].[moe](G)[sp].[moe](C)}$$$$V2.0 | 80% and 68% |  |

Source: the OligoGym collection
